Experimental data taken from US11878970B2, “Allosteric chromenone inhibitors of phosphoinositide 3-kinase (PI3K) for the treatment of disease” (Petra Pharma Corporation, priority 2021, dated 2024).

Tests used:
[1] = molecular target: T1, PI3K-α (PIK3CA) wild-type (WT), p110α/p85α complex (Homo sapiens, UniProt P42336); assay: PI3K-alpha kinase (PIK3CA) biochemical activity, ADP-Glo, wild-type; conditions: Soy PI lipid substrate
T1 construct: Recombinant, catalytically active human full length PIK3KA Wild-type and H1047R mutant; 6×His (N); purchased EMD Millipore Sigma 14-602M
Outline: (§1)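 ADP formation measured by ADP-Glo luminescence after reaction at 27 °C to about 10% ATP turnover, using 20 uM ATP, 50 uM PIP2diC8 or soy PI lipid, HEPES pH 7.4 with MgCl2. Enzyme (1-5 nM WT or H1047R p110α/p85α) and compound preincubated 1 h first; 10-point 1:3 curves fitted four-parameter for IC50.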

[2] = molecular target: T2, PI3K-α (PIK3CA) H1047R mutant, p110α/p85α complex (Homo sapiens, UniProt P42336, H1047R); assay: PI3K-alpha kinase (PIK3CA) biochemical activity, ADP-Glo, H1047R mutant; conditions: Soy PI lipid substrate
T2 construct: Recombinant, catalytically active human full length PIK3KA Wild-type and H1047R mutant; 6×His (N); purchased EMD Millipore Sigma 14-792M
T2 sequence (P42336 whole entry H1047R): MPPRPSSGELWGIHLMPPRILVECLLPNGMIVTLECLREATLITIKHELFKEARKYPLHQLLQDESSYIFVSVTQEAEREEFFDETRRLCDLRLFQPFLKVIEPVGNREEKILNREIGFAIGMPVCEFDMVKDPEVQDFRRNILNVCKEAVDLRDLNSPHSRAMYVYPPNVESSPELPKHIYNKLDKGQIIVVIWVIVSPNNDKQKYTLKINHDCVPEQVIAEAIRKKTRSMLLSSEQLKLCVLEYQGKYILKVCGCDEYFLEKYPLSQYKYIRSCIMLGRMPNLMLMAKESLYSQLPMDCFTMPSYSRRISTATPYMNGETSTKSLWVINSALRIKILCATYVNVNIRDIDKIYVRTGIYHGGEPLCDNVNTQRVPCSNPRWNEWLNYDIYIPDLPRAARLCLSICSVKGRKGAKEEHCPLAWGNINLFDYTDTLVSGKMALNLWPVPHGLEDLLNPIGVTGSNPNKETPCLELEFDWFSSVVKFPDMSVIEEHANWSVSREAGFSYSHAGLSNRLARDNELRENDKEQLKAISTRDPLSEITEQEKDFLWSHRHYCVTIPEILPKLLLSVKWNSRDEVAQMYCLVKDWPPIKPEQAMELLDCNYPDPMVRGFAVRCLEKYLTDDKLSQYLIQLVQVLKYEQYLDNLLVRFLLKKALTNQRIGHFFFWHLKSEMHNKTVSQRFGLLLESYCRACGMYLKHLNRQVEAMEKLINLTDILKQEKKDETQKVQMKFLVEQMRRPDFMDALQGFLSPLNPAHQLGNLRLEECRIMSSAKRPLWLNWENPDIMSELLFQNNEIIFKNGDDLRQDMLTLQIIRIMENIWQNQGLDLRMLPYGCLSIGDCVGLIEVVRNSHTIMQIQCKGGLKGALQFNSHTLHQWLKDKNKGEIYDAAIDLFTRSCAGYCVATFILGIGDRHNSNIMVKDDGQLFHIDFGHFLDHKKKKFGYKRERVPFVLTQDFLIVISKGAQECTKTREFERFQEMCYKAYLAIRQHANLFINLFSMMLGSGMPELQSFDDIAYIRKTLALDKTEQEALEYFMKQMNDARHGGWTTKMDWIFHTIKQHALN
T2 sequence (P27986 whole entry partner): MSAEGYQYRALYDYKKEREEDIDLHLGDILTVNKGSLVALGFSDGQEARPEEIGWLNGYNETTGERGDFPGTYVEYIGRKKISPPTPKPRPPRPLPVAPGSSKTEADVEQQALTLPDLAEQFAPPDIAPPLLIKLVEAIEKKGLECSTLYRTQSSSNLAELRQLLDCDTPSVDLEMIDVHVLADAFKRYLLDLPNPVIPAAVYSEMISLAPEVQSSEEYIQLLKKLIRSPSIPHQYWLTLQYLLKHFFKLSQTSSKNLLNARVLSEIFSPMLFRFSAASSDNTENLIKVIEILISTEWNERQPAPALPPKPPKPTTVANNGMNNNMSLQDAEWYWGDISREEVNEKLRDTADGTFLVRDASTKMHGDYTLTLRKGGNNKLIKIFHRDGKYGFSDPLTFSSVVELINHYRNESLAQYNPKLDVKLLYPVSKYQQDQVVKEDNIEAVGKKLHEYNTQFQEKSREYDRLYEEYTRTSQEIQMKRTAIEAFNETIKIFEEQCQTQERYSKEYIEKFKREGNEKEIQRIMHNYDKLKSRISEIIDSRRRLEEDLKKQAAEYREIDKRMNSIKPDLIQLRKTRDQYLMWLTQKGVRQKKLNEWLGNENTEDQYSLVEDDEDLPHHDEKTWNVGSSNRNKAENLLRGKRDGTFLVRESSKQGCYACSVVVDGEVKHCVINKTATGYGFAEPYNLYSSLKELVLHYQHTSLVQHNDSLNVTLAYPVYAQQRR
Outline: as §1

[3] = molecular target: PI3K-α (PIK3CA) in MDA-MB-453 cells (Homo sapiens, UniProt P42336); assay: PI3K-alpha kinase (PIK3CA) in vitro cell based assay, MDA-MB-453 cells, SureFire Ultra AlphaLisa; conditions: read-out: PI3K-α (PIK3CA) in vitro cell based assay IC50
Sequence of PI3K-α (PIK3CA) in MDA-MB-453 cells (P27986 2-724): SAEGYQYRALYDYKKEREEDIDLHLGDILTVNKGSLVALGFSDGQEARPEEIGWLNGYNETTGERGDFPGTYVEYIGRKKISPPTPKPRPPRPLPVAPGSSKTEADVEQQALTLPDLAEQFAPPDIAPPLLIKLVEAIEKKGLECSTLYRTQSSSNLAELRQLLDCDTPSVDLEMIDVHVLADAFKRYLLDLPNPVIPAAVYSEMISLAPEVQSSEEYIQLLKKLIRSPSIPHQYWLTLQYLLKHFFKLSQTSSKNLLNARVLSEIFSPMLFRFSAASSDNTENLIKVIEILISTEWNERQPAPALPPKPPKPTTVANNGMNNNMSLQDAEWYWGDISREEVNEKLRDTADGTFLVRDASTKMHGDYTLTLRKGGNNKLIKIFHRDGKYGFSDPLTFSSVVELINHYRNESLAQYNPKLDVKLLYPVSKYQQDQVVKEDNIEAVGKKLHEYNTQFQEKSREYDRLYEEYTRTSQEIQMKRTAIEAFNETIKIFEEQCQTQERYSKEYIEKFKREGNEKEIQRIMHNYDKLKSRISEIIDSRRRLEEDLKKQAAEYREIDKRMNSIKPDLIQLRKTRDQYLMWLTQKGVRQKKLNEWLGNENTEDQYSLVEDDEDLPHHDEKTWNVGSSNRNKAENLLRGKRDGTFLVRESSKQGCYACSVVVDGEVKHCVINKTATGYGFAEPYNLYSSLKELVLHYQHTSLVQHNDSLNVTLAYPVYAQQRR
Sequence of PI3K-α (PIK3CA) in MDA-MB-453 cells (P42336 whole entry): as the sequence (P42336 whole entry H1047R) above, with R1047H counted along it
Outline: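 Cells treated 3 h in serum-free MEM with 1 μg/mL insulin, 10-point 1:3 series in 0.3% DMSO, then lysed for SureFire Ultra AlphaLisa read-out. Inhibition normalized to DMSO (max) and 1 μM GDC-0032 (min); duplicate averages fitted by 4-parameter logistic for relative IC50.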

Row | Compound | IC50 [1] | IC50 [2] | IC50 [3]
1 | Cc1cc(C(C)Nc2ccccc2C(=O)O)c2oc(-c3ccn4nccc4c3)cc(=O)c2c1 (single isomer, unassigned) [Example 113, 2-[1-(6-Methyl-4-oxo-2-pyrazolo[1,5-a]pyridin-5-yl-chromen-8-yl)ethylamino]benzoic acid] | 500 to 1000 nM | < 500 nM | < 50 nM
2 | Cc1cc(C(C)Nc2ccccc2C(=O)O)c2oc(-c3ccc4c(c3)NC(=O)C4)cc(=O)c2c1 (single isomer, unassigned) [Example 115, 2-[1-[6-Methyl-4-oxo-2-(2-oxoindolin-6-yl)chromen-8-yl]ethylamino]benzoic acid] | 1000 to 5000 nM | < 500 nM | 100 to 500 nM
3 | Cc1cc(C(C)Nc2ccccc2C(=O)O)c2oc(-c3cccc4cn(C)nc34)cc(=O)c2c1 (single isomer, unassigned) [Example 116, 2-[1-[6-Methyl-2-(2-methylindazol-7-yl)-4-oxo-chromen-8-yl]ethylamino]benzoic acid] | > 10000 nM | < 500 nM | 100 to 500 nM
4 | Cc1cc(C(C)Nc2ccccc2C(=O)O)c2oc(-c3cccc4oc(C)nc34)cc(=O)c2c1 (single isomer, unassigned) [Example 117, 2-[1-[6-Methyl-2-(2-methyl-1,3-benzoxazol-4-yl)-4-oxo-chromen-8-yl]ethylamino]benzoic acid] | 1000 to 5000 nM | 500 to 1000 nM | > 500 nM
5 | Cc1cc(C(C)Nc2ccccc2C(=O)O)c2oc(-c3ccc4cn[nH]c4c3)c(C)c(=O)c2c1 (single isomer, unassigned) [Example 120, 2-[1-[2-(1H-Indazol-6-yl)-3,6-dimethyl-4-oxo-chromen-8-yl]ethylamino]benzoic acid] | 500 to 1000 nM | < 500 nM | < 50 nM
6 | Cc1cc(C(C)Nc2ccccc2C(=O)O)c2oc(-c3cnn4ccccc34)cc(=O)c2c1 (single isomer, unassigned) [Example 125, 2-[1-(6-Methyl-4-oxo-2-pyrazolo[1,5-a]pyridin-3-yl-chromen-8-yl)ethylamino]benzoic acid] | 1000 to 5000 nM | < 500 nM | < 50 nM
7 | Cc1cc(C(C)Nc2ccccc2C(=O)O)c2oc(-c3cc(C)c4nn(C)cc4c3)cc(=O)c2c1 (single isomer, unassigned) [Example 126, 2-[1-[2-(2,7-Dimethylindazol-5-yl)-6-methyl-4-oxo-chromen-8-yl]ethylamino]benzoic acid] | 1000 to 5000 nM | < 500 nM | < 50 nM
8 | CC(Nc1ccccc1C(=O)O)c1cc(F)cc2c(=O)cc(-c3cc4ccccc4[nH]3)oc12 (single isomer, unassigned) [Example 128, 2-[1-[6-Fluoro-2-(1H-indol-2-yl)-4-oxo-chromen-8-yl]ethylamino]benzoic acid] | 500 to 1000 nM | < 500 nM | < 50 nM
9 | Cc1cc(C(C)Nc2ccccc2C(=O)O)c2oc(-c3ccc4[nH]ncc4c3)c(C)c(=O)c2c1 (single isomer, unassigned) [Example 132, 2-[1-[2-(1H-Indazol-5-yl)-3,6-dimethyl-4-oxo-chromen-8-yl]ethylamino]benzoic acid] | 500 to 1000 nM | < 500 nM | < 50 nM
10 | Cc1cc(C(C)Nc2ccccc2C(=O)O)c2oc(-c3ccc4nc(C)sc4n3)cc(=O)c2c1 (single isomer, unassigned) [Example 139, 2-[1-[6-Methyl-2-(2-methylthiazolo[5,4-b]pyridin-5-yl)-4-oxo-chromen-8-yl]ethylamino]benzoic acid] | 1000 to 5000 nM | < 500 nM | < 50 nM
11 | Cc1cc(C(C)Nc2ccccc2C(=O)O)c2oc(-c3cc(C)c4nn(C)cc4c3)cc(=O)c2c1 (single isomer, unassigned) [Example 144, 2-[1-[2-(2,7-Dimethylindazol-5-yl)-6-methyl-4-oxo-chromen-8-yl]ethylamino]benzoic acid] | 1000 to 5000 nM | < 500 nM | < 50 nM
12 | Cc1cc(C(C)Nc2ccccc2C(=O)O)c2oc(-c3cnc4ccccn34)cc(=O)c2c1 (single isomer, unassigned) [Example 145, 2-[1-(2-Imidazo[1,2-a]pyridin-3-yl-6-methyl-4-oxo-chromen-8-yl)ethylamino]benzoic acid] | 1000 to 5000 nM | < 500 nM | 100 to 500 nM
13 | Cc1cc(C(C)Nc2ccccc2C(=O)O)c2oc(-c3ccc4cnn(C)c4c3)c(C)c(=O)c2c1 (single isomer, unassigned) [Example 149, 2-[1-[3,6-Dimethyl-2-(1-methylindazol-6-yl)-4-oxo-chromen-8-yl]ethylamino]benzoic acid] | < 500 nM | < 500 nM | < 50 nM
14 | Cc1cc(C(C)Nc2ccccc2C(=O)O)c2oc(-c3ccc4c(cnn4C)c3)c(C)c(=O)c2c1 (single isomer, unassigned) [Example 150, 2-[1-[3,6-Dimethyl-2-(1-methylindazol-5-yl)-4-oxo-chromen-8-yl]ethylamino]benzoic acid] | < 500 nM | < 500 nM | < 50 nM
15 | Cc1cc(C(C)Nc2ccccc2C(=O)O)c2oc(-c3cc4ccncc4o3)c(C)c(=O)c2c1 (single isomer, unassigned) [Example 151, 2-[1-(2-Furo[2,3-c]pyridin-2-yl-3,6-dimethyl-4-oxo-chromen-8-yl)ethylamino]benzoic acid] | 500 to 1000 nM | < 500 nM | < 50 nM
16 | Cc1cc(C(C)Nc2ccccc2C(=O)O)c2oc(-c3cc4cnccc4o3)c(C)c(=O)c2c1 (single isomer, unassigned) [Example 153, 2-[1-(2-Furo[3,2-c]pyridin-2-yl-3,6-dimethyl-4-oxo-chromen-8-yl)ethylamino]benzoic acid] | < 500 nM | < 500 nM | < 50 nM
17 | CC(Nc1ccccc1C(=O)O)c1cc(F)cc2c(=O)cc(-c3ccc4nn(C)cc4c3)oc12 (single isomer, unassigned) [Example 156, 2-[1-[6-Fluoro-2-(2-methylindazol-5-yl)-4-oxo-chromen-8-yl]ethylamino]benzoic acid] | 1000 to 5000 nM | 1000 to 5000 nM | > 500 nM
18 | Cc1cc(C(C)Nc2ccccc2C(=O)O)c2oc(-c3ccc4ccn(C)c4c3)cc(=O)c2c1 (single isomer, unassigned) [Example 158, 2-[1-[6-Methyl-2-(1-methylindol-6-yl)-4-oxo-chromen-8-yl]ethylamino]benzoic acid] | 1000 to 5000 nM | < 500 nM | < 50 nM
19 | Cc1cc(C(C)Nc2ccccc2C(=O)O)c2oc(-c3cc4cn(C)nc4cn3)cc(=O)c2c1 (single isomer, unassigned) [Example 160, 2-[1-[6-Methyl-2-(2-methylpyrazolo[3,4-c]pyridin-5-yl)-4-oxo-chromen-8-yl]ethylamino]benzoic acid] | 1000 to 5000 nM | < 500 nM | 50 to 100 nM
20 | Cc1cc(C(C)Nc2ccccc2C(=O)O)c2oc(-c3cnc4c(c3)OCCO4)cc(=O)c2c1 (single isomer, unassigned) [Example 163, 2-[1-[2-(2,3-Dihydro-[1,4]dioxino[2,3-b]pyridin-7-yl)-6-methyl-4-oxo-chromen-8-yl]ethylamino]benzoic acid] | 5000 to 10000 nM | < 500 nM | 50 to 100 nM
